Source: ChEMBL document CHEMBL1201862, “PubChem BioAssay data set” (2004)
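Assay format: 96-well plates, 48-hour exposure. GI50: concentration for 50% inhibition of growth.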 Activity calls are given as the source filed them. Rule as the data show it: active = GI50 up to about 1.1 µM and inactive = higher.

Key:
Experiment in all cases: NCI tumour cell line growth inhibition, 48 h
SNB-19 = test system: SNB-19
SK-MEL-2 = test system: SK-MEL-2
SW-620 = test system: SW-620
U-251 = test system: U-251
PC-3 = test system: PC-3
HL-60 = test system: HL-60
SF-268 = test system: SF-268
OVCAR-8 = test system: OVCAR-8
DU-145 = test system: DU-145
SNB-75 = test system: SNB-75
UACC-62 = test system: UACC-62
SR = test system: SR
LOX IMVI = test system: LOX IMVI
HT-29 = test system: HT-29
Malme-3M = test system: Malme-3M
HCC 2998 = test system: HCC 2998
SN12C = test system: SN12C
K562 = test system: K562
CAKI-1 = test system: CAKI-1
MCF7 = test system: MCF7

Row | Structure (SMILES) | GI50 (SNB-19) | GI50 (SK-MEL-2) | GI50 (SW-620) | GI50 (U-251) | GI50 (PC-3) | GI50 (HL-60) | GI50 (SF-268) | GI50 (OVCAR-8) | GI50 (DU-145) | GI50 (SNB-75) | GI50 (UACC-62) | GI50 (SR) | GI50 (LOX IMVI) | GI50 (HT-29) | GI50 (Malme-3M) | GI50 (HCC 2998) | GI50 (SN12C) | GI50 (K562) | GI50 (CAKI-1) | GI50 (MCF7)
1 | O=[N+]([O-])c1cc(F)ccc1Sc1ccccc1 | > 10 µM (inactive) | > 10 µM (inactive) | > 10 µM (inactive) | > 10 µM (inactive) | > 10 µM (inactive) | > 10 µM (inactive) | > 10 µM (inactive) | > 10 µM (inactive) | > 10 µM (inactive) | > 10 µM (inactive) | > 10 µM (inactive) | > 10 µM (inactive) | > 10 µM (inactive) | > 10 µM (inactive) | > 10 µM (inactive) | > 10 µM (inactive) | > 10 µM (inactive) | > 10 µM (inactive) | > 10 µM (inactive) | > 10 µM (inactive)
2 | FC(F)(F)c1ccc2c(-c3cc[nH]c3)ccnc2c1 | 17.5 µM (inactive) | > 100 µM (inactive) | 36.1 µM (inactive) | 44.3 µM (inactive) | 36.6 µM (inactive) | 16.7 µM (inactive) | > 10 µM (inactive) | 34.1 µM (inactive) | 32.5 µM (inactive) | 14.4 µM (inactive) | > 100 µM (inactive) | 27 µM (inactive) | 19.4 µM (inactive) | 21.4 µM (inactive) | 24.5 µM (inactive) | > 100 µM (inactive) | 41 µM (inactive) | 30 µM (inactive) | 31.4 µM (inactive) | 30.8 µM (inactive)
3 | O=C1OC(c2ccccc2)=N/C1=C\c1ccc(N(CCCl)CCCl)cc1 | > 100 µM (inactive) | > 27.2 µM (inactive) | > 100 µM (inactive) | > 100 µM (inactive) | > 86.5 µM (inactive) | 45.4 µM (inactive) | > 88.7 µM (inactive) | > 100 µM (inactive) | > 100 µM (inactive) | > 100 µM (inactive) | > 100 µM (inactive) | 11.6 µM (inactive) | > 91.4 µM (inactive) | > 100 µM (inactive) | > 100 µM (inactive) | > 100 µM (inactive) | > 92 µM (inactive) | 16.5 µM (inactive) | > 100 µM (inactive) | 39.9 µM (inactive)
4 | CC1(CCCC2(C)CCNC2=O)OCCO1 (stereo not given) | > 10 µM (inactive) | > 10 µM (inactive) | > 10 µM (inactive) | > 10 µM (inactive) | > 10 µM (inactive) | > 10 µM (inactive) | > 10 µM (inactive) | > 10 µM (inactive) | > 10 µM (inactive) | > 10 µM (inactive) | > 10 µM (inactive) | > 10 µM (inactive) | > 10 µM (inactive) | > 10 µM (inactive) | > 10 µM (inactive) | > 10 µM (inactive) | > 10 µM (inactive) | > 10 µM (inactive) | > 10 µM (inactive) | > 10 µM (inactive)
5 | CCOc1nc2c(N3CCCC3)nc(N3CCNCC3)nc2nc1NCc1ccccc1 | 1.51 µM (inactive) | 1.66 µM (inactive) | 1.73 µM (inactive) | 1.17 µM (inactive) | 1.46 µM (inactive) | 1.4 µM (inactive) | 1.56 µM (inactive) | 1.73 µM (inactive) | 0.944 µM (active) | 0.975 µM (active) | 1.83 µM (inactive) | 1.31 µM (inactive) | 1.36 µM (inactive) | 0.83 µM (active) | 1.89 µM (inactive) | 1.34 µM (inactive) | 1.5 µM (inactive) | 1.2 µM (inactive) | 1.85 µM (inactive) | 1.53 µM (inactive)
6 | CCCCCCCCC/C=C/C=C/C(=O)NCC(=O)NC1C(O)C(O)C(Nc2ncnc3[nH]cnc23)OC1C(O)CO (stereo not given) | 0.00175 µM (active) | 0.0056 µM (active) | 0.00156 µM (active) | 0.00149 µM (active) | 0.00023 µM (active) | 0.00159 µM (active) | 0.0143 µM (active) | 0.00413 µM (active) | 0.00388 µM (active) | 0.00125 µM (active) | 0.00507 µM (active) | 0.0211 µM (active) | 0.00234 µM (active) | 0.0011 µM (active) | 0.00242 µM (active) | 0.000509 µM (active) | 0.0136 µM (active) | 0.063 µM (active) | 0.00692 µM (active) | 0.668 µM (active)
7 | Clc1ccc(-c2nnc(-c3cccc4ccccc34)o2)cc1Cl | > 100 µM (inactive) | > 100 µM (inactive) | > 100 µM (inactive) | > 100 µM (inactive) | > 100 µM (inactive) | 1.03 µM (active) | > 100 µM (inactive) | > 100 µM (inactive) | > 100 µM (inactive) | > 100 µM (inactive) | > 100 µM (inactive) | 40.3 µM (inactive) | > 100 µM (inactive) | > 100 µM (inactive) | > 100 µM (inactive) | > 100 µM (inactive) | > 100 µM (inactive) | > 100 µM (inactive) | > 100 µM (inactive) | > 100 µM (inactive)
8 | COc1cccc(OC)c1C1ON=C(c2ccccc2)N1C12CC3CC(CC(C3)C1)C2 (stereo not given) | 13.1 µM (inactive) | 64 µM (inactive) | > 100 µM (inactive) | 30.1 µM (inactive) | 66.5 µM (inactive) | 1.87 µM (inactive) | > 100 µM (inactive) | > 100 µM (inactive) | > 100 µM (inactive) | 20.7 µM (inactive) | > 100 µM (inactive) | 5.92 µM (inactive) | > 100 µM (inactive) | > 100 µM (inactive) | 38.6 µM (inactive) | > 100 µM (inactive) | > 100 µM (inactive) | > 100 µM (inactive) | > 100 µM (inactive) | > 100 µM (inactive)
9 | NS(=O)(=O)c1ccc(NNc2c3ccccc3nc3ccccc23)cc1 | 14.7 µM (inactive) | 13.5 µM (inactive) | 10.9 µM (inactive) | 11.7 µM (inactive) | 11.5 µM (inactive) | 8.63 µM (inactive) | 12.2 µM (inactive) | 11.8 µM (inactive) | 14.3 µM (inactive) | 12.9 µM (inactive) | 12.3 µM (inactive) | 10.8 µM (inactive) | 7.21 µM (inactive) | 7.73 µM (inactive) | 11.2 µM (inactive) | 12.2 µM (inactive) | 14 µM (inactive) | 7.89 µM (inactive) | 13 µM (inactive) | 10.9 µM (inactive)
10 | O=C1C2=C(CC3=C(C2)CS(=O)(=O)C3)C(=O)C2=C1CC1=C(C2)CS(=O)(=O)C1 | 17.7 µM (inactive) | 32.4 µM (inactive) | 18 µM (inactive) | 13.5 µM (inactive) | 10.8 µM (inactive) | 8.93 µM (inactive) | > 26.4 µM (inactive) | 24.2 µM (inactive) | 48.2 µM (inactive) | > 20.9 µM (inactive) | 15.8 µM (inactive) | 4.4 µM (inactive) | 14.3 µM (inactive) | 8.59 µM (inactive) | 5.42 µM (inactive) | 20.6 µM (inactive) | 15.3 µM (inactive) | 10.6 µM (inactive) | 36 µM (inactive) | 13.2 µM (inactive)
11 | CC1C(=O)OC2CC[N+]3([O-])CC=C(COC(=O)C(C)(O)C1(C)O)C23 (stereo not given) | > 100 µM (inactive) | > 100 µM (inactive) | > 100 µM (inactive) | > 100 µM (inactive) | > 100 µM (inactive) | > 100 µM (inactive) | > 100 µM (inactive) | > 100 µM (inactive) | > 100 µM (inactive) | > 100 µM (inactive) | > 100 µM (inactive) | 95.7 µM (inactive) | > 100 µM (inactive) | > 100 µM (inactive) | > 100 µM (inactive) | > 100 µM (inactive) | > 100 µM (inactive) | > 100 µM (inactive) | > 100 µM (inactive) | > 100 µM (inactive)
12 | O=C(c1ccc(Cl)cc1)N(Cc1cccnc1)C(=S)N(Cc1cccnc1)C(=O)c1ccc(Cl)cc1 | 41.5 µM (inactive) | 23 µM (inactive) | 40.5 µM (inactive) | 22.7 µM (inactive) | 30.3 µM (inactive) | 33.2 µM (inactive) | 28.3 µM (inactive) | 29.6 µM (inactive) | 31.1 µM (inactive) | 37.1 µM (inactive) | 24.3 µM (inactive) | 50.4 µM (inactive) | 22 µM (inactive) | 26.1 µM (inactive) | 51.2 µM (inactive) | 25.9 µM (inactive) | 18.6 µM (inactive) | 22.9 µM (inactive) | 42.4 µM (inactive) | 29.7 µM (inactive)
13 | C=C1CC2(CC(c3ccccc3C)OC(c3ccccc3C)C2)OC1=O (stereo not given) | 16.3 µM (inactive) | 2 µM (inactive) | 1.73 µM (inactive) | 12.9 µM (inactive) | 2.21 µM (inactive) | 1.6 µM (inactive) | 1.83 µM (inactive) | 2.19 µM (inactive) | 12.1 µM (inactive) | 3.23 µM (inactive) | 1.54 µM (inactive) | 2.15 µM (inactive) | 1.58 µM (inactive) | 1.82 µM (inactive) | 1.71 µM (inactive) | 2.25 µM (inactive) | 1.97 µM (inactive) | 2.15 µM (inactive) | 1.87 µM (inactive) | 1.85 µM (inactive)
14 | COc1cc(OC)cc(Oc2nc3ccccc3nc2C(F)(F)F)c1 | 53.7 µM (inactive) | 48.6 µM (inactive) | 20.4 µM (inactive) | 27.2 µM (inactive) | 89.7 µM (inactive) | 22.3 µM (inactive) | 68.4 µM (inactive) | > 100 µM (inactive) | > 100 µM (inactive) | 21.9 µM (inactive) | > 100 µM (inactive) | 6.1 µM (inactive) | > 100 µM (inactive) | > 100 µM (inactive) | > 100 µM (inactive) | > 100 µM (inactive) | > 100 µM (inactive) | 9.25 µM (inactive) | > 100 µM (inactive) | > 100 µM (inactive)
